Results reported in patent US10335411B2, “Administration of ubiquitin-activating enzyme inhibitor and radiation” (Millennium Pharmaceuticals, Inc., priority 2014, dated 2019).

How the values were obtained:
LU-01-0030 xenograft = assay: second LU-01-0030 xenograft study, Compound 1 and radiation; assay type: in vivo, mice
Text: In a second study with the LU-01-0030 xenograft model, 6-8 week old female BALB/c nude (Shanghai Sino-British SIPPR/BK Laboratory Animal Co., LTD.) mice were implanted subcutaneously with approximate 20-30 mm^3 LU-01-0030 tumor slices in the right flank. When the mean tumor volume reached approximately 182 mm^3, the animals were randomized into 6 treatment groups (n=8/group).
(§1) Compound 1 [((1R,2R,3S,4R)-2,3-dihydroxy-4-(2-(3-(trifluoromethylthio) ? phenyl)pyrazolo[1,5-a]pyrimidin-7-ylamino)cyclopentyl)methyl sulfamate] is formulated in 10% HPbCD in sterile water and administered intravenously on days 0, 3, 7, 10, 14, 17 in the LU-01-0266 and HN-13-0007 models and on days 0, 3, 8, 11, 15, 18 in the ST-02-0004 model and in the second study with the LU-01-0030 model. Compound 1 formulation was prepared weekly and stored at room temperature in the dark.
Beam-focused radiation was delivered using 4 Gray dosed on day 0 in the second study for the LU-01-0030 model.
(§2) Tumors were measured twice weekly using vernier calipers. Tumor volumes were calculated using the following formula: (0.5×[length×width^2]). Treatment groups and dosing/treatment schedules are indicated in Tables 1a, 2a, 3a, 4a, and 5a below. Tumor size and body weight are measured approximately twice a week for the duration of the study. Mice are euthanized when their tumor volume reached approximately 1000 mm^3. Tumor growth continued to be monitored after the dosing period in some studies. In Tables 1a, 2a, 3a, 4a, and 5a tumor volumes are shown for HN-13-0014 (day 21), LU-01-0030 (day 21), the second LU-01-0030 study (day 20), LU-01-0266 (day 20), ST-02-0004 (day 21) and FIN-13-0007 (day 24), respectively. Average tumor volume is reported as a function of time for selected groups of selected studies.
(§3) Measurements from day 0 to day 20, day 21 or day 24 are analyzed as specified in Tables below. All tumor volumes have a value of 1 added to them before log10 transformation. For each animal, the log tumor volume at day 0 is subtracted from the log tumor volume on the subsequent days. This difference vs. time is used to calculate an area under the curve (AUC) for each animal using the trapezoid rule. In instances when an animal in a treatment group is removed early from the study, the last observed tumor value is carried forward through all subsequent time points. The synergy score for the combination of agents A and B is defined as 100*(mean(AUCAB)−mean(AUCA)−mean(AUCB)+mean(AUCctl))/mean(AUCctl): where AUCAB, AUCA, AUCB, and AUCctl are the AUC values for animals in the combination group, the A group, the B group, and the control group, respectively. The standard error of the synergy score is computed based on the variation in the AUC values among the animals. […] If the P-value is above 0.05, then the combination is considered to be additive. If the P-value is below 0.05, and the synergy score is less than zero, then the combination is considered to be synergistic. If the P-value is below 0.05 and the synergy score was greater than zero, but the mean AUC for the combination was lower than the lowest mean AUC among the two single agent treatments, then the combination was sub-additive. If the P-value is below 0.05 and if the synergy score was greater than zero, and the mean AUC for the combination was greater than the mean AUC for at least one of the single agent treatments, then the combination was antagonistic.

HN-13-0007 xenograft = HN-13-0007 xenograft model, Compound 1 and radiation; assay type: in vivo, mice; details: for Classification / Synergy score: through Day 24
Text: The HN-13-0007 xenograft model is a human primary head and neck […] cancer model. Approximately nine week old female BALB/c nude (Shanghai Sino-British SIPPR/BK Laboratory Animal Co., LTD.) mice were implanted subcutaneously with approximate 30 mm^3 HN-13-0007 tumor slices in the right flank. When the mean tumor volume reached approximately 130 mm^3, the animals were randomized into 10 treatment groups (n=8/group).
as §1
Beam-focused radiation was delivered using 2 Gray dosed on days 0, 1, 7, and 8 or on days 0, 3, 7, and 10 in the LU-01-0266 and HN-13-0007 models. In the ST-02-0004 model 2 Gray of radiation was delivered on days 0, 1, 3, and 8. A Rad Source RS-2000 X-ray irradiator was used for therapy (Rad Source). Before radiation, animals were anesthetized by i.p. injection using 1.0% sodium pentobarbital at 80 mg/kg (Vendor: Sigma). Focused radiation was applied to each mouse at 1 Gy/min.
as §2, §3

[1] = 6.25 mg/kg Compound 1 + 4 Gy Radiation D0
[2] = 15 mg/kg Compound 1 + 4 Gy Radiation D0
[3] = 6.25 mg/kg Compound 1 + 2 Gy Radiation D0, 1, 7, 8
[4] = 6.25 mg/kg Compound 1 + 2 Gy Radiation D0, 3, 7, 10
[5] = 15 mg/kg Compound 1 + 2 Gy Radiation D0, 1, 7, 8
[6] = 15 mg/kg Compound 1 + 2 Gy Radiation D0, 3, 7, 10

Question: Which Classification (LU-01-0030 xenograft; [1]) does the source give for `NS(=O)(=O)OC[C@H]1C[C@@H](Nc2ccnc3cc(-c4cccc(SC(F)(F)F)c4)nn23)[C@H](O)[C@@H]1O` [Compound 1, ((1R,2R,3S,4R)-2,3-dihydroxy-4-(2-(3-(trifluoromethylthio)phenyl)pyrazolo[1,5-a]pyrimidin-7-ylamino)cyclopentyl)methyl sulfamate] here?
Answer: Additive (If the P-value is above 0.05, then the combination is considered to be additive)

Question: What about the Synergy score (LU-01-0030 xenograft; [1]) of the same compound?
Answer: −74.5

Question: What about the “Tumor Volume Day 20” value (LU-01-0030 xenograft; 6.25 mg/kg Compound 1 IV D 0, 3, 8, 11, 15, 18 + 4 Gy Radiation Beam D 0) of the same compound?
Answer: 83.8 mm^3

Question: And the “Tumor Volume Day 20” value (LU-01-0030 xenograft; 6.25 mg/kg Compound 1 IV D 0, 3, 8, 11, 15, 18, single agent)?
Answer: 648.9 mm^3

Question: And the Classification (LU-01-0030 xenograft; [2])?
Answer: Additive (If the P-value is above 0.05, then the combination is considered to be additive)

Question: And the Synergy score (LU-01-0030 xenograft; [2])?
Answer: −10.3

Question: What about the “Tumor Volume Day 20” value (LU-01-0030 xenograft; 15 mg/kg Compound 1 IV D 0, 3, 8, 11, 15, 18 + 4 Gy Radiation Beam D 0) of the same compound?
Answer: 2.04 mm^3

Question: What about the “Tumor Volume Day 20” value (LU-01-0030 xenograft; 15 mg/kg Compound 1 IV D 0, 3, 8, 11, 15, 18, single agent) of the same compound?
Answer: 67.8 mm^3

Question: And the combination effect (LU-01-0030 xenograft; Compound 1 with 4 Gy radiation)?
Answer: additive combination effect

Question: What about the “Tumor Volume Day 24” value (HN-13-0007 xenograft; 6.25 mg/kg Compound 1 IV BIWx3 + 2 Gy Radiation Beam D 0, 1, 7, 8) of the same compound?
Answer: 318.8 mm^3

Question: And the “Tumor Volume Day 24” value (HN-13-0007 xenograft; 6.25 mg/kg Compound 1 IV BIWx3 + 2 Gy Radiation Beam D 0, 3, 7, 10)?
Answer: 340 mm^3

Question: And the “Tumor Volume Day 24” value (HN-13-0007 xenograft; 6.25 mg/kg Compound 1 IV BIWx3 = D 0, 3, 7, 10, 14, 17, single agent)?
Answer: 442.4 mm^3

Question: What about the “Tumor Volume Day 24” value (HN-13-0007 xenograft; 15 mg/kg Compound 1 IV BIWx3 + 2 Gy Radiation Beam D 0, 1, 7, 8) of the same compound?
Answer: 358.3 mm^3

Question: And the “Tumor Volume Day 24” value (HN-13-0007 xenograft; 15 mg/kg Compound 1 IV BIWx3 + 2 Gy Radiation Beam D 0, 3, 7, 10)?
Answer: 299.7 mm^3

Question: And the “Tumor Volume Day 24” value (HN-13-0007 xenograft; 15 mg/kg Compound 1 IV BIWx3 = D 0, 3, 7, 10, 14, 17, single agent)?
Answer: 362.1 mm^3

Question: What about the “tumor growth inhibition, single agent” value (HN-13-0007 xenograft; Compound 1 at 15 mg/kg as single agent) of the same compound?
Answer: minimal tumor growth inhibition

Question: And the combination effect (HN-13-0007 xenograft; Compound 1 with 2 Gy radiation)?
Answer: additive combination effect

Question: And the “anti-tumor activity compared to the vehicle control” value (HN-13-0007 xenograft; single agent, IV at 6.25 mg/kg for 3 weeks on Days 0, 3, 7, 10, 14, 17)?
Answer: no anti-tumor activity

Question: What about the Classification (HN-13-0007 xenograft; [3]) of the same compound?
Answer: Additive (If the P-value is above 0.05, then the combination is considered to be additive)

Question: And the Synergy score (HN-13-0007 xenograft; [3])?
Answer: −20

Question: And the Classification (HN-13-0007 xenograft; [4])?
Answer: Additive (If the P-value is above 0.05, then the combination is considered to be additive)

Question: What about the Synergy score (HN-13-0007 xenograft; [4]) of the same compound?
Answer: −24

Question: And the Classification (HN-13-0007 xenograft; [5])?
Answer: Additive (If the P-value is above 0.05, then the combination is considered to be additive)

Question: And the Synergy score (HN-13-0007 xenograft; [5])?
Answer: 24

Question: What about the Classification (HN-13-0007 xenograft; [6]) of the same compound?
Answer: Additive (If the P-value is above 0.05, then the combination is considered to be additive)

Question: What about the Synergy score (HN-13-0007 xenograft; [6]) of the same compound?
Answer: −13
